Assay results published in US4882272A, “High molecular weight kininogen assay” (Temple University - of the Commonwealth System of Higher …, priority 1987, dated 1989).
Peptide text beside a SMILES is read from it.

Molecular target: T1, human factor XIa (Homo sapiens, UniProt P03951)
T1 construct: converted to the active enzyme factor XIa by factor XIIa
Experiment: Hydrolysis of chromogenic substrate S-2366 by factor XIa
Assay type: biochemical
Procedure: According to one embodiment, a chromogenic substrate for factor XIa is incubated with the assay reaction mixture. The substrate should, under the conditions of the assay, be capable of hydrolysis by factor XIa to yield a hydrolysis product whose appearance may be monitored spectrophotometrically or by a microplate reader. Such substrates include, for example, L-pyroglutamyl-L-prolyl-L-arginine-p-nitroanilide and H-D-leucylthreonyl-arginine-p-nitroanilide, available from KabiVitrum in hydrochloride form as "S-2366" and "S-2511", respectively. The enzymatic activity of factor XIa catalyzes the hydrolysis of the peptide-p-nitroanilide bond, releasing the chromophore p-nitroaniline. The appearance of p-nitroaniline may be measured spectrophotometrically after a fixed hydrolysis time, at 405 nm. The change in absorbance is proportional to the enzyme activity.
S-2366 is the preferred substrate.

T1 sequence (P03951 388-625 limits assumed): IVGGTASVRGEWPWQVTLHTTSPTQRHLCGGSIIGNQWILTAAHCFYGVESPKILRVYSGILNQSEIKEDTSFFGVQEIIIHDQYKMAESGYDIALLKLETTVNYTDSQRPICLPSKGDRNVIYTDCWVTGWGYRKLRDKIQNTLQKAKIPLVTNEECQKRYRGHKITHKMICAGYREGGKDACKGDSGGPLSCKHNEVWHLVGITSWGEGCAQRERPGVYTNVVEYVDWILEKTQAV
T1 sequence (P03951 19-387 partner limits assumed): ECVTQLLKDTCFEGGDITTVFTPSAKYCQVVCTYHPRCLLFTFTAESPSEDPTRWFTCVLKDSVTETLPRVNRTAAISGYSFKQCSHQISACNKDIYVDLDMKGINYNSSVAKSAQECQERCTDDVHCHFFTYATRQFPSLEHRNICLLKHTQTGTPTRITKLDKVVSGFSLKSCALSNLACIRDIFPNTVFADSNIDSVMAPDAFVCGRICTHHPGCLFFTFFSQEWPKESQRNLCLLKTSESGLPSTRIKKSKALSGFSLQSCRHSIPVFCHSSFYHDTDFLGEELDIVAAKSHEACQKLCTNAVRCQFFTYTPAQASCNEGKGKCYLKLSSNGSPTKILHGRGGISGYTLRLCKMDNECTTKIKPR

N=C(N)NCCC[C@H](NC(=O)[C@@H]1CCCN1C(=O)[C@@H]1CCC(=O)N1)C(=O)Nc1ccc([N+](=O)[O-])cc1 [S-2366, L-pyroglutamyl-L-prolyl-L-arginine-p-nitroanilide] (HELM PEPTIDE1{[Glp].P.R.[O=[N+]([O-])c1ccc(N[*:1])cc1]}$$$$V2.0)
Kcat to Km ratio: 5.5e+06 M⁻¹ s⁻¹
